The IC50 is the concentration that gives 50% inhibition. High values mean lower potency, low ones higher potency.

Where a name gives a salt, the structure may show the parent alone.

IC50 data for 29 compounds are collected here from patent US7816535B2, “Vinyl-phenyl derivatives for inflammation and immune-related uses” (Synta Pharmaceuticals Corp., priority 2006, dated 2010).

The assay deals with IL-2 production. Briefly: Inhibition of IL-2 production in PHA-activated Jurkat cells (ELISA). The assay is classed as cell-based. To be noted: PHA 2.5 μg/mL, IL-2 ELISA. As to the method:
Jurkat cells were placed in a 96 well plate (0.5 million cells per well in 1% FBS medium) then a test compound of this invention was added at different concentrations. After 10 minutes, the cells were activated with PHA (final concentration 2.5 μg/mL) and incubated for 20 hours at 37° C. under CO2. The final volume was 200 μL. Following incubation, the cells were centrifuged and the supernatants collected and stored at −70° C. prior to assaying for IL-2 production. A commercial ELISA kit (IL-2 Eli-pair, Diaclone Research, Besancon, France) was used to detect production of IL-2, from which dose response curves were obtained. The IC50 value was calculated as the concentration at which 50% of maximum IL-2 production after stimulation was inhibited versus a non-stimulation control.

In the case of `CC1=C(c2ccc(NC(=O)c3c(F)cccc3F)cc2)CCN(C)C1` [Compound 15, N-(4-(1,5-Dimethyl-1,2,3,6-tetrahydropyridin-4-yl)phenyl)-2,6-difluorobenzamide], the IC50 (Homo sapiens, 20 hours) is greater than 1000 nM. The compound `CC1=C(c2ccc(NC(=O)c3c(F)cccc3F)cc2)CN(C(=O)c2cccnc2)CC1` [Compound 64] registered an IC50 (Homo sapiens, Jurkat, 20 h) of 962 nM. This counts as sub-micromolar. Still for that read-out and setting: for `COC(=O)N1CCC(C)=C(c2ccc(NC(=O)c3ccncc3C)cc2)C1` [Compound 103, N-[4-(1-methoxycarbonyl-4-methyl-1,2,5,6-tetrahydro-pyridin-3-yl)-phenyl]-3-methyl-isonicotinamide] the value was 150 nM; for `CC1=C(c2ccc(NC(=O)c3ccncc3C)cc2)CN(S(=O)(=O)c2ccccc2)CC1` [Compound 61, N-[4-(1-phenylsulfonyl-4-methyl-1,2,5,6-tetrahydro-pyridin-3-yl)-phenyl]-3-methyl-isonicotinamide], 164 nM; for `CC(=O)N1CCC(C)=C(c2ccc(NC(=O)c3c(F)cccc3F)cc2)C1` [Compound 62, 2,6-Difluoro-N-[4-(1-acetyl-4-methyl-1,2,5,6-tetrahydro-pyridin-3-yl)-phenyl]-benzamide], 431 nM.

`CC1=C(c2ccc(NC(=O)c3c(F)cccc3F)cc2)CN(c2nccs2)CC1` [Compound 75, 2,6-Difluoro-N-[4-(1-thiazol-2-yl-4-methyl-1,2,5,6-tetrahydro-pyridin-3-yl)-phenyl]-benzamide, hydrochloride] displayed an IC50 (20 hours, hydrochloride) of 11 nM.

In the case of `O=C(Nc1ccc(C2=C(c3cnco3)CCC2)cc1)c1c(F)cccc1F` [Compound 34, 2,6-Difluoro-N-[4-(2-oxazol-5-yl-cyclopent-1-enyl)-phenyl]-benzamide], for the setting “Homo sapiens, Jurkat, 20 h”, the IC50 came out at 20.5 nM. Still for that read-out and setting: to `CC1=C(c2ccc(NC(=O)c3c(F)cccc3F)cc2)CN(C)CC1` [Compound 10, N-(4-(1,4-dimethyl-1,2,5,6-tetrahydropyridin-3-yl)phenyl)-2,6-difluorobenzamide] belongs greater than 1000 nM. The same measure, in the same setting: for `CC(C)=C(C)c1ccc(NC(=O)c2ccncc2F)cc1` [Compound 13, 3-Fluoro-N-(4-(3-methylbut-2-en-2-yl)phenyl)-isonicotinamide] the value was 382 nM; for `CC1=C(c2ccc(NC(=O)c3ncncc3C)cc2)CCCC1` [Compound 26, 5-Methyl-pyrimidine-4-carboxylic acid [4-(2-methyl-cyclohex-1-enyl)-phenyl]-amide], 165 nM.

`CC1=C(c2ccc(NC(=O)c3c(F)cccc3F)cc2)CCNC1` [Compound 17, 2,6-Difluoro-N-(4-(5-methyl-1,2,3,6-tetrahydropyridin-4-yl)phenyl)benzamide]: the IC50 (Homo sapiens, 20 hours) was greater than 1000 nM. Compound `COC(=O)N1CCC(C)=C(c2ccc(NC(=O)c3c(F)cccc3F)cc2)C1` [Compound 49, 2,6-Difluoro-N-[4-(1-methoxycarbonyl-4-methyl-1,2,5,6-tetrahydro-pyridin-3-yl)-phenyl]-benzamide] gave an IC50 (Homo sapiens, Jurkat, 20 h) of 16.2 nM. The compound `CC1=C(c2ccc(NC(=O)c3c(F)cccc3F)cc2)CCN(C(=O)Oc2ccccc2)C1` [Compound 55, 2,6-Difluoro-N-[4-(1-phenyloxycarbonyl-3-methyl-1,2,5,6-tetrahydro-pyridin-4-yl)-phenyl]-benzamide] came in with an IC50 (Homo sapiens, Jurkat, 20 h) of 941 nM. Under “Homo sapiens, Jurkat, 20 h”, `C=C(C)[C@@H]1CCC(C)=C(c2ccc(NC(=O)c3ccncc3C)cc2)C1` [Compound 2, 3-Methyl-N-[4-(2-methyl-5(R)-isopropenyl-cyclohex-1-enyl)-phenyl]-isonicotinamide] showed an IC50 of 11 nM.

Turning to `O=C(Nc1ccc(C2=C(c3cnco3)CCCCC2)cc1)c1c(F)cccc1F` [Compound 38], the IC50 (Homo sapiens, Jurkat, 20 h) came out at 23.1 nM. Same read-out and setting: for `O=C(Nc1ccc(C2=C(Cl)CCCC2)cc1)c1c(F)cccc1F` [Compound 21, N-[4-(2-chloro-cyclohex-1-enyl)-phenyl]-2,6-difluoro-benzamide] the value was 23.2 nM; for `O=CC1=C(c2ccc(NC(=O)c3c(F)cccc3F)cc2)CN(c2nccs2)CC1` [Compound 78, 2,6-Difluoro-N-[4-(1-thiazol-2-yl-4-formyl-1,2,5,6-tetrahydro-pyridin-3-yl)-phenyl]-benzamide], 227 nM.

`O=C(Nc1ccc(C2=C(c3cnco3)CCCC2)cc1)c1c(F)cccc1F` [Compound 23, N-[4-(2-oxazol-5-yl-cyclohex-1-enyl)-phenyl]-2,6-difluoro-benzamide] came in with a half-maximal inhibitory concentration (IC50) (Homo sapiens, Jurkat, 20 h) of 7.4 nM. Compared with the last compound, the IC50 is about 31-fold lower. The same measure, in the same setting: to `CC1=C(c2ccc(NC(=O)c3ccncc3C)cc2)C[C@@H]([C@@](C)(O)CO)CC1` [Compound 9, N-(4-((S)-5-((R)-1,2-dihydroxypropan-2-yl)-2-methylcyclohex-1-enyl)phenyl)-3-methylisonicotinamide] belongs 748 nM. As for `CC1=C(c2ccc(NC(=O)c3ccncc3C)cc2)CN(c2nccs2)CC1` [Compound 59, N-[4-(1-thiazol-2-yl-4-methyl-1,2,5,6-tetrahydro-pyridin-3-yl)-phenyl]-3-methyl-isonicotinamide], the midpoint of inhibition (Homo sapiens, Jurkat, 20 h), the IC50, lay at 48.9 nM. Against the preceding compound, the IC50 is about 15-fold lower. Same read-out and setting: for `CC1=C(c2ccc(NC(=O)c3scnc3Cl)cc2)CCCC1` [Compound 28, 4-Chloro-thiazole-5-carboxylic acid [4-(2-methyl-cyclohex-1-enyl)-phenyl]-amide] the value was 143 nM. For `CCOC(=O)C1=C(c2ccc(NC(=O)c3c(F)cccc3F)cc2)CCN(C(=O)OC)CC1` [Compound 39, 2,6-Difluoro-N-[4-(1-methoxycarboxyl-5-ethoxycarbonyl-2,3,6,7-tetrahydro-1H-azepin-4-yl)-phenyl]-benzamide], the IC50 (Homo sapiens, Jurkat, 20 h) came out at 380 nM. This IC50 lies about 2.7-fold higher than the previous one. As for `CC1=C(c2ccc(NC(=O)c3ncncc3C)cc2)CN(c2nccs2)CC1` [Compound 77, 5-Methyl-pyrimidine-4-carboxylic acid [4-(1-thiazol-2-yl-4-methyl-1,2,5,6-tetrahydro-pyridin-3-yl)-phenyl]-amide], the half-maximal inhibitory concentration (IC50) (Homo sapiens, Jurkat, 20 h) was determined as 99.3 nM. Compared with the last compound, the IC50 is about 3.8-fold lower.

`O=C(Nc1ccc(C2=C(CO)CCC2)cc1)c1c(F)cccc1F` [Compound 31, 2,6-Difluoro-N-[4-(2-hydroxymethyl-cyclopent-1-enyl)-phenyl]-benzamide] came in with an IC50 (Homo sapiens, Jurkat, 20 h) greater than 1000 nM. Consider `CC1=C(c2ccc(NC(=O)c3ccncc3F)cc2)CN(CC2CC2)CC1` [Compound 69, N-[4-(1-cyclopropylmethyl-4-methyl-1,2,5,6-tetrahydro-pyridin-3-yl)-phenyl]-3-fluoro-isonicotinamide], for which, for the setting “Homo sapiens, Jurkat, 20 h”, the IC50 was greater than 1000 nM.

Regarding `CCOC(=O)N1CCC(C)=C(c2ccc(NC(=O)c3snnc3C)cc2)C1` [Compound 47, 4-Methyl-[1,2,3]thiadiazole-5-carboxylic acid [4-(1-ethoxycarbonyl-4-methyl-1,2,5,6-tetrahydro-pyridin-3-yl)-phenyl]-amide], the IC50 (Homo sapiens, Jurkat, 20 h) came out at 411 nM.

Turning to `O=CC1=C(c2ccc(NC(=O)c3c(F)cccc3F)cc2)CCCC1` [Compound 100, N-[4-(2-formyl-cyclohex-1-enyl)-phenyl]-2,6-difluoro-benzamide], the IC50 (Homo sapiens, Jurkat, 20 h) was 90 nM.

In turn, `CCOC(=O)C1=C(c2ccc(NC(=O)c3c(F)cccc3F)cc2)CCC1` [Compound 30, 2-[4-(2,6-Difluoro-benzoylamino)phenyl]-cyclopent-1-enecarboxylic acid ethyl ester] gave a 50% inhibitory concentration (IC50) (Homo sapiens, Jurkat, 20 h) of 300 nM. Under “Homo sapiens, Jurkat, 20 h”, `CC1=C(c2ccc(NC(=O)c3c(F)cccc3F)cc2)CN(Cc2ccccc2)CC1` [Compound 11, N-(4-(1-benzyl-4-methyl-1,2,5,6-tetrahydropyridin-3-yl)phenyl)-2,6-difluorobenzamide] gave an IC50 greater than 1000 nM.
